Data as given in paper PMC5848165 (Toxins, 2018).
“Also recorded” adds a separate entry of the source. Residues, ends and D or L forms follow the SMILES beside them.

Key:
[1] = target: T1, rNav1.3 (Rattus norvegicus, UniProt P08104); assay: Whole-cell patch clamp, Nav1.3 in HEK293 cells; type: cell-based; conditions: −10 mV from −80 mV holding
T1 construct: expressed in transfected cells; host or cells: HEK293 (HEK293T) cells, transient
From the text: (§1) Nine sodium channel subtypes have been identified and classified as TTX-S (Nav1.1–Nav1.4, Nav1.6, and Nav1.7) or TTX-R types (Nav1.5, Nav1.8, and Nav1.9). […] However, the subtype selectivity of JZTX-34 on the subtype of sodium channel is still unknown. In this work, effects of JZTX-34 on VGSC subtypes (Nav1.1–Nav1.8) were examined. Nav1.1–Nav1.7 were transfected into HEK293 cells and Nav1.8 currents were expressed in ND cells. Inward sodium currents were elicited by a 50 ms depolarizing potential to −10 mV from a holding potential of −80 mV every 5 s. […] No effects on other sodium channel subtypes were found (Nav1.1, Nav1.2, Nav1.4–Nav1.6, and Nav1.8) (Figure S2).
Figure 2 Selectivity of JZTX-34 on sodium channel subtypes. […]
(§2) The HEK293T cells were maintained in standard culture conditions (5% CO2 and 37 °C). […] After culturing for 36–72 h, cells with obvious green fluorescence were selected for sodium currents recordings the internal solution for sodium currents recording that contained (in mM) 140 CsF, 5 NaCl, 10 HEPES, 3 Na2-ATP, and 10 EGTA. […]
(§3) Sodium currents were recorded from DRG, HEK293, and ND cells by the whole-cell patch-clamp technique at 25 °C. […] Experiments date were acquired from whole-cell Axon 700B patch clamp amplifier (Molecular Devices, Sunnyvale, CA, USA) and analyzed by the program Clampfit10.0 (Molecular Devices, Sunnyvale, CA, USA) and Sigmaplot. […]

[2] = system: Nav1.2; assay: Whole-cell patch clamp, Nav1.2 in HEK293 cells; type: cell-based, rat; conditions: 1 µM, −10 mV from −80 mV
From the text: as §1, with “S2). […]” for “S2).”
as §2, §3

[3] = system: Nav1.5; assay: Whole-cell patch clamp, WT Nav1.5 in HEK293 cells; type: cell-based, rat; conditions: 1 µM, −10 mV from −80 mV
From the text: as §1, with “S2). […]” for “S2).”
as §2, §3

[4] = system: hot plate test in mice; assay: Hot plate test; type: in vivo, mouse (Kunming); conditions: for hot plate latency: 120 min, baseline about 10 s, n = 6
Procedure: Figure 6 Effects of JZTX-34 on pain. (A) Effects of JZTX-34 on the early phase (0–5 min) and late phase (15–30 min) of formalin-induced paw licking response in mice. (B) Effects of JZTX-34 on the acetic acid-induced writhing response in mice. (C)Effects of JZTX-34 on the hot plate test in mice.
Mice with a latency time about 10 s were selected for the hot plate test. […] After administration of test samples, the latency time was recorded at the time points of 30 min, 60 min, 120 min, and 180 min (Figure 6C). Negative control animals received the same volume of vehicle.
The synthesized JZTX-34 was obtained according to the procedure as previously described. […] Rats (Sprague-Dawley) and Kunming mice were maintained in the Laboratory of Protein Chemistry of Hunan Normal University. All of the experimental involving animals were approved by the Animal Care and Use Committee of Hunan Normal University (2016-273, 13 October 2016).
Mice were put on a hot plate apparatus (model HZ66-ZH-YLS-6B, Shanghai, China) in order to test response time to a thermal stimulus. The responses time of mice at about 10 s was selected for the test. […] Hind paw licking or jumping were regarded as a sign to avoid heat nociception.
Data from Axon 700B patch clamp were analyzed by Clampfit10.0 (Molecular Devices, Sunnyvale, CA, USA). Dose-response curves were fitted by the Hill logistic equation: y = 1 − (1 − fmax)/[…]. In this equation, n stands an empirical Hill coefficient and fmax is the fraction of current resistant to inhibition at high toxin (Tx) concentration. The G-V curves were obtained by calculating the conductance (G) at each voltage (V) using the equation G = I/(V1 − Vrev), with Vrev being the reversal potential determined for each cell individually. G-V curves were fitted using a Boltzmann equation—y = 1/(1 + exp[(Va − V)/κ])—in which Va, V, and κ represent midpoint voltage of kinetics, test potential, and slope factor, respectively. […] Statistical significance was calculated using Student’s t-test and was defined as p < 0.05.

T1 sequence (Q07699 19-218): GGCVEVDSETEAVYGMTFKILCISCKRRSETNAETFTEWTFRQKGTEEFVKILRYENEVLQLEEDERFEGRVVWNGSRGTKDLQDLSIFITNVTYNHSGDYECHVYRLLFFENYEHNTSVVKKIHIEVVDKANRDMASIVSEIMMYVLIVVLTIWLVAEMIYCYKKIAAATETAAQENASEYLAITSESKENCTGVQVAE
T1 sequence (P08104 whole entry): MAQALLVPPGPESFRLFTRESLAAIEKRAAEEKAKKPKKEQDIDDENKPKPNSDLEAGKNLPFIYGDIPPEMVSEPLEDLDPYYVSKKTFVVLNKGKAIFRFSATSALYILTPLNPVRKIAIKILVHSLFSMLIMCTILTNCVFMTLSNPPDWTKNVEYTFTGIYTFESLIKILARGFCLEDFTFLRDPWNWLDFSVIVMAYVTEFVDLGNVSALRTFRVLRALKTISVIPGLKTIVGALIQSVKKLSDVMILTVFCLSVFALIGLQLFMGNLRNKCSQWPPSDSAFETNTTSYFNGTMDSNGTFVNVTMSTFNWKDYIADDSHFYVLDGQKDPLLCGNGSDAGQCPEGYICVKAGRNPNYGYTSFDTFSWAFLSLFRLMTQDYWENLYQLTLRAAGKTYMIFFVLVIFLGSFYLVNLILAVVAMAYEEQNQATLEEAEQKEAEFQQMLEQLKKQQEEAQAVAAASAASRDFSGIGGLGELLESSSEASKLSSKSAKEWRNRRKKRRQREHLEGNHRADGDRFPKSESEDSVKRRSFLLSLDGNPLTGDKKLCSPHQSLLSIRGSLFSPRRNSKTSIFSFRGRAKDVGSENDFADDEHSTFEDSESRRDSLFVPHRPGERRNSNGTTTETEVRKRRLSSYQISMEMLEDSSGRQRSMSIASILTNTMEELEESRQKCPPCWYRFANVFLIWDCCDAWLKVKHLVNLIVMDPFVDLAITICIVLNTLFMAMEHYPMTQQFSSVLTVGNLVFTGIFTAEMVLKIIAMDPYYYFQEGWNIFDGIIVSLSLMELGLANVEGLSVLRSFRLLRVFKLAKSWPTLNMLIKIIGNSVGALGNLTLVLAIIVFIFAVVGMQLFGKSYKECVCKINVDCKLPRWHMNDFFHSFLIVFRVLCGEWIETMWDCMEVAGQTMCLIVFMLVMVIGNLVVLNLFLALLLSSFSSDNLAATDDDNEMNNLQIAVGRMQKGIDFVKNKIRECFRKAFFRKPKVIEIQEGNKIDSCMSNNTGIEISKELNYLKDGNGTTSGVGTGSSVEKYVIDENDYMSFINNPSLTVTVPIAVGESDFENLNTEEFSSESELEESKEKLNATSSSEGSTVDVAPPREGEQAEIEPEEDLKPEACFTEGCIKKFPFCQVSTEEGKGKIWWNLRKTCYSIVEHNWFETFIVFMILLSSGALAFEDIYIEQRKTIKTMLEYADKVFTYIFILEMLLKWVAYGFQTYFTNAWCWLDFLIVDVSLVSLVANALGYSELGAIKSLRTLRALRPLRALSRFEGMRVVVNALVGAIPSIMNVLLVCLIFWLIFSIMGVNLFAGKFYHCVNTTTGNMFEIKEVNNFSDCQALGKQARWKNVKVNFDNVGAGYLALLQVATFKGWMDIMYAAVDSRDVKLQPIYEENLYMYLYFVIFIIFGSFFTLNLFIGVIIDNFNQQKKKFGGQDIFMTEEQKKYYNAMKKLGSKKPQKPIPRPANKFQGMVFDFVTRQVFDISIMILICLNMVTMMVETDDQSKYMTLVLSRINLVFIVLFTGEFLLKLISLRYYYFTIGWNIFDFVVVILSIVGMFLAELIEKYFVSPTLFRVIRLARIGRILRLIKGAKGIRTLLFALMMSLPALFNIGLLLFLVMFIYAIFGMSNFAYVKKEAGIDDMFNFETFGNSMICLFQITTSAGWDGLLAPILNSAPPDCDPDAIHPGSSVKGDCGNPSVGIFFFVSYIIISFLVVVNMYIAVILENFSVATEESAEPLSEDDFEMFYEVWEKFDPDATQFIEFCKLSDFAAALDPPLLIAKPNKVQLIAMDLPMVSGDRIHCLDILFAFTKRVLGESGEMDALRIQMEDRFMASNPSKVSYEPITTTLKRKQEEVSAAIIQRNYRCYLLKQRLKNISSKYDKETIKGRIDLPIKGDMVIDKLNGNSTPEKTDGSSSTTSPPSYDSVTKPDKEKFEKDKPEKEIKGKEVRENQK

## CC(C)C[C@@H]1NC(=O)[C@H](Cc2c[nH]c3ccccc23)NC(=O)[C@H](CCC(=O)O)NC(=O)[C@H](CCCNC(=N)N)NC(=O)[C@@H](NC(=O)[C@H](C)N)CSSC[C@@H]2NC(=O)[C@@H]3CSSC[C@@H](C(=O)N[C@H](C(=O)N[C@@H](Cc4c[nH]c5ccccc45)C(=O)N[C@@H](CC(=O)O)C(=O)N[C@@H](Cc4c[nH]c5ccccc45)C(=O)N[C@H](C(=O)N[C@H](C(=O)O)C(C)C)[C@@H](C)O)C(C)C)NC(=O)[C@H](Cc4c[nH]cn4)NC(=O)[C@H](Cc4ccc(O)cc4)NC(=O)[C@@H]4CCCN4C(=O)[C@H](Cc4c[nH]c5ccccc45)NC(=O)[C@H](CCCCN)NC(=O)[C@H](CCCCN)NC(=O)[C@H](CCCNC(=N)N)NC(=O)[C@H](CSSC[C@H](NC(=O)CNC(=O)CNC1=O)C(=O)N[C@@H](CO)C(=O)N[C@@H](CCCCN)C(=O)N[C@@H](CC(=O)O)C(=O)N[C@@H](C)C(=O)N[C@@H](CC(=O)O)C(=O)N3)NC(=O)[C@H](CCC(=O)O)NC(=O)[C@H](CC(C)C)NC(=O)[C@H](Cc1c[nH]cn1)NC(=O)[C@H](C)NC2=O [JZTX-34, Jingzhaotoxin-34] (HELM PEPTIDE1{A.C.R.E.W.L.G.G.C.S.K.D.A.D.C.C.A.H.L.E.C.R.K.K.W.P.Y.H.C.V.W.D.W.T.V}$PEPTIDE1,PEPTIDE1,2:R3-16:R3|PEPTIDE1,PEPTIDE1,9:R3-21:R3|PEPTIDE1,PEPTIDE1,15:R3-29:R3$$$V2.0; N-terminus and C-terminus assumed)
[1]; 1 µM, mean ± S.E.
  reduction of Nav1.3 currents: 29.4 ± 4.6%
[1]; Hill fit, n = 5
  IC50: 7.95 µM
[2]
  effect on Nav1.2 currents: No effects
[3]
  effect on Nav1.5 currents: No effects; also recorded: resistant
[4]; 0.5 mg/kg i.p.
  hot plate latency: 18.3 s
[4]; 1 mg/kg i.p.
  hot plate latency: 23.0 s
[4]; 2 mg/kg i.p.
  hot plate latency: 31.6 s
[4]; 0.5, 1 or 2 mg/kg i.p.
  time of maximal analgesia, hot plate: 120 min
[4]; JZTX-34 2 mg/kg vs morphine 5 mg/kg
  hot plate, analgesia vs morphine: longer duration and is more effective than morphine; also recorded: longer and stronger analgesia effects than 5 mg/kg morphine
